Measurements as given in patent US11395803B2, “Composition for controlled release of physiologically active substances and process for its preparation” (BIOSCREEN TECHNOLOGIES S.R.L., priority 2017, dated 2022).

What was measured:
[1] = Post-ruminal digestibility, in vitro (pharmaceutical dissolver, Boisen Test)
Description: Whereas, the term “post-ruminal digestibility” of a substance means the percentage amount by weight of substance that is freed from the coating exclusively in the post-ruminal tract, dissolving and so making it digestible or absorbable, with respect to the total amount by weight of the orally administered substance.
The experimental conditions of use were 39° C., 15 rpm, 8 hours presence in the solution with “ruminal” pH of about 6.8. • Daisy^II ANKOM: commercially available laboratory artificial rumen, for determining the degree of ruminal bypass. The experimental conditions of use were 39° C., 8 hours presence in ruminal conditions, buffer solution at “ruminal” pH with insertion of “ruminal inoculum” and re-creation of ruminal anaerobiosis according to a university procedure known to those skilled in the art. The pH normally tested in the quality control phase is 6.8. • Pharmaceutical dissolver for determining the degree of post-ruminal digestibility. The experimental conditions of use followed the procedure known to experts in the field as “Boisen Test” and, in particular, they were: • 39° C., 30 rpm, 2 h, buffer solution with “gastric” pH (2.0)+pepsin inoculum. • 39° C., 30 rpm, 4 h, buffer solution with “intestinal” pH (6.8)+pancreatine inoculum. • 39° C., 30 rpm, 18 h, buffer solution with “intestinal” pH (6.8)+lipase and bile extract inoculum. […]

[2] = Degree of ruminal bypass, in vitro (pharmaceutical dissolver / Daisy II ANKOM artificial rumen)
Description: In the context of the present invention, the term “ruminal by-pass” indicates the percentage amount by weight of substance reaching the animal post-ruminal area, namely the stomach and the intestine, with respect to the total amount by weight of the orally administered substance.
The experimental conditions of use were 39° C., 15 rpm, 8 hours presence in the solution with “ruminal” pH of about 6.8. • Daisy^II ANKOM: commercially available laboratory artificial rumen, for determining the degree of ruminal bypass. The experimental conditions of use were 39° C., 8 hours presence in ruminal conditions, buffer solution at “ruminal” pH with insertion of “ruminal inoculum” and re-creation of ruminal anaerobiosis according to a university procedure known to those skilled in the art. The pH normally tested in the quality control phase is 6.8. • Pharmaceutical dissolver for determining the degree of post-ruminal digestibility. The experimental conditions of use followed the procedure known to experts in the field as “Boisen Test” and, in particular, they were: • 39° C., 30 rpm, 2 h, buffer solution with “gastric” pH (2.0)+pepsin inoculum. • 39° C., 30 rpm, 4 h, buffer solution with “intestinal” pH (6.8)+pancreatine inoculum. • 39° C., 30 rpm, 18 h, buffer solution with “intestinal” pH (6.8)+lipase and bile extract inoculum.
Then the microgranules were subjected to an evaluation of the degree of ruminal by-pass, post-ruminal digestibility and total bioavailability using the Boisen method. For a complete description of the Boisen method, reference is made to the publication S. Boisen, J. A. Fernàndez “Prediction of total tract digestibility of energy feedstuffs and […] by in vitro analyses” Animal Feed Science Technology 68, 277-286, 1997.

[3] = Total bioavailability, in vitro (combination of ruminal bypass and post-ruminal digestibility, Boisen method)
[4] = theoretical administration of 100 g of choline chloride
[5] = theoretical administration of 200 g of product

C[N+](C)(C)CCO.[Cl-] [Product A, choline chloride]
Choline Chloride in faeces [1, 4]: 0 g
Choline Chloride in faeces [1, 5]: 0 g
Bypassed Choline Chloride [2, 4]: 0 g
Choline Chloride lost in the rumen in 8 h [2, 4]: 101 g
Bypassed Choline Chloride [2, 5]: 0 g
Choline Chloride lost in the rumen in 8 h [2, 5]: 198 g
Bioavailable Choline Chloride [3, 4]: 0 g
Bioavailable Choline Chloride [3, 5]: 0 g
